# Results: patent US20220177453A1, “CRYSTALLIZATION OF SMAC MIMIC USED AS IAP INHIBITOR AND PREPARATION METHOD THEREOF” (CHIA TAI TIANQING PHARMACEUTICAL GROUP CO., LTD., priority 2019, published 2022)
# Legend:
# [1] = Hygroscopicity study (DVS); type: physicochemical
# Experimental: Instrument model: SMS DVS Advantage
# Test conditions: crystalline form A of the compound of formula (I) (10-15 mg) was placed in a DVS sample tray for testing.
# The DVS parameters are as follows: • Temperature: 25° C. • Balancing: dm/dt=0.01%/min (shortest: 10 min, longest: 180 min) • Drying: drying at 0% RH for 120 min • RH (%) measurement gradient: 10% • RH (%) measurement gradient range: 0%-90%-0%
# [2] = Influencing factor (high temperature, high humidity) and irradiation stability tests; type: physicochemical
# [3] = Long-term accelerated stability test; type: physicochemical
# Experimental: Long-term accelerated test: 22 parts of crystalline form A of the compound of formula (I) each containing 1 50 g were prepared. The samples were separately put into a double-layer LDPE bag with each layer of LDPE bag sealed separately. The bag was then put into an aluminum foil bag for heat sealing. At inspection time points, the corresponding test samples were taken out, covered with bottle caps. 0-day samples were thawed to room temperature and directly analyzed. Approximately 10 mg of the test article was subjected to XRPD. The compounds were placed in the following conditions and samples were taken at different time points for determining their properties, XRPD pattern, content and related substances.
# [4] = molecular target: T1, cIAP1 BIR3 (Homo sapiens, UniProt Q13490); assay: cIAP1 BIR3 fluorescence polarization binding assay; conditions: 5 nM probe, 20 nM cIAP1 BIR3
# T1 construct: isolated BIR3 domain of human cIAP1 (amino acids 258-363); cIAP1; His; GST; purchased RBC APT-11-370; host or cells: E. coli
# Text: (§1) Buffer system (a buffer for cIAP1 BIR3 or XIAP BIR3): 0.1 mollL potassium phosphate, pH 7.5, 0.1% bovine serum albumin, 0.005% Triton X-100 and 1% dimethyl sulfoxide.
# (§2) Probe: ARPFAQ-K(5-FAM)-NH2.
# cIAP1-BIR3-his: RBC (Cat# APT-11-370), isolated BIR3 domain of human cIAP1 (amino acids 258-363; cIAP1
# BIR3) expressed by E. coli as GST-fusion protein.
# (§3) XIAP-BIR3-his: RBC (Cat# APT-11-374), isolated BIR3 domain of XIAP (amino acids 255-356; XIAP BIR3) expressed by E. coli as GST-fusion protein. Condition: 5 nM ARPFAQ-K(5-FAM)-NH2, 20 nM cIAP1 BIR3 and 30 nM XIAP BIR3.
# (§4) Firstly, fresh buffer of cIAP1 BIR3 or XIAP BIR3 was prepared, and mixed with 2 folds of cIAP1 BIR3 or XIAP BIR3 solution. A solution of test compound completely dissolved in 100% DMSO via ultrasonication was added to the buffer containing cIAP1 BIR3 or XIAP BIR3. The mixture was added with 2 folds of probes, mixed and incubated for 60 min in the dark at room temperature. Fluorescence polarization was measured and mP value was calculated, finally giving an IC50 value.
# [5] = molecular target: T2, XIAP BIR3 (Homo sapiens, UniProt P98170); assay: XIAP BIR3 fluorescence polarization binding assay; conditions: 5 nM probe, 30 nM XIAP BIR3
# T2 construct: isolated BIR3 domain of XIAP (amino acids 255-356; XIAP BIR3); His; GST; purchased RBC APT-11-374; host or cells: E. coli
# Experimental: as §1, §2, §3, §4
# [6] = test system: MDA-MB-231 triple negative breast cancer CDX; assay: In vivo efficacy study 1, MDA-MB-231 triple negative breast cancer CDX model; set-up: species or system BALB/c nude mice
# Experimental: (§5) In vivo efficacy study was conducted on BALB/c nude mice by subcutaneously implanting human tumor cell line-derived xenograft (CDX) from MDA-MB-231 triple negative breast cancer patients
# (§6) BALB/c nude mice, female, aged 6-8 weeks, about 18-22 g, were kept in a special pathogen-free environment and in separate ventilated cages (3 mice per cage). All cages, bedding and water were disinfected prior to use. All animals had free access to standard certified commercial laboratory diets. 48 mice were purchased from Shanghai BK Laboratory Animal Co., LTD. for the study. Each mouse was implanted subcutaneously in the right flank with cancer cells (10×10^6 cells in 0.2 mL of phosphate buffered saline) for tumor growth. The mice were administered when the mean tumor volume reached about 147 mm^3. The test compounds were administered orally at a daily dose of 30 mg/kg. Tumor volume was measured every 3 days with a two-dimensional caliper, and the volume was measured in mm^3 and calculated according to the following formula: V=0.5×a×b^2, where a and b are the long and short diameters, respectively, of the tumor. Anti-tumor efficacy was determined by dividing the mean tumor increase volume of compound-treated animals by the mean tumor increase volume of untreated animals
# [7] = test system: MDA-MB-231 triple negative breast cancer CDX; assay: In vivo efficacy study 2, MDA-MB-231 triple negative breast cancer CDX model; set-up: species or system BALB/c nude mice
# Experimental: as §5
# as §6, with “tumor” for “cancer”, “(10×10^6” for “(10×10^6 cells”, “buffer)” for “buffered saline)”, “110” for “147”
# T1 sequence (Q13490 258-363): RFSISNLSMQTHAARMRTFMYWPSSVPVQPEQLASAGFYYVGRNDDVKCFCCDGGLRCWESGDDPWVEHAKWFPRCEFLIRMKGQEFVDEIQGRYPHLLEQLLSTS
# T2 sequence (P98170 255-356): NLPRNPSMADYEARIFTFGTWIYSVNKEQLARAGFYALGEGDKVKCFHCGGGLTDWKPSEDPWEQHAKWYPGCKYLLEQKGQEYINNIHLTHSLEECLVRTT
smiles,measurement,setting,value
CN[C@@H](C)C(=O)N[C@H](C(=O)N1CCC[C@H]1Cn1cc(C(C)=O)c2cc(Cl)ccc21)C1CCCCC1,hygroscopic weight gain,[1]; 25° C. and 80% RH,0.72%
same,Classification of hygroscopicity,[1]; weight gain at 25° C./80% RH,slightly hygroscopic
same,Content of crystalline form A (%),[2]; 25° C.-92.5% RH-5 days,99.1%
same,Impurity content (%),[2]; 25° C.-92.5% RH-5 days,1.16%
same,Content of crystalline form A (%),[2]; 25° C.-92.5% RH-10 days,98.8%
same,Impurity content (%),[2]; 25° C.-92.5% RH-10 days,1.13%
same,Content of crystalline form A (%),[2]; 25° C.-92.5% RH-30 days,99.2%
same,Impurity content (%),[2]; 25° C.-92.5% RH-30 days,1.19%
same,Content of crystalline form A (%),[2]; 60° C.-5 days,99%
same,Impurity content (%),[2]; 60° C.-5 days,1.16%
same,Content of crystalline form A (%),[2]; 60° C.-10 days,98.2%
same,Impurity content (%),[2]; 60° C.-10 days,1.14%
same,Content of crystalline form A (%),[2]; 60° C.-30 days,99.1%
same,Impurity content (%),[2]; 60° C.-30 days,1.19%
same,Content of crystalline form A (%),[2]; Day 0,98.2%
same,Impurity content (%),[2]; Day 0,1.19%
same,Content of crystalline form A (%),[2]; Irradiation-5 days,97.8%
same,Impurity content (%),[2]; Irradiation-5 days,1.12%
same,Content of crystalline form A (%),[2]; Irradiation-10 days,99.3%
same,Impurity content (%),[2]; Irradiation-10 days,1.13%
same,Crystalline form stability by XRPD versus day 0,[2]; the various test conditions of Tables 4 and 5,stable
same,Content of crystalline form A (%),[3]; 25° C.-60% RH-3 months,98%
same,Impurity content (%),[3]; 25° C.-60% RH-3 months,1.16%
same,Content of crystalline form A (%),[3]; 25° C.-60% RH-6 months,99.5%
same,Impurity content (%),[3]; 25° C.-60% RH-6 months,1.12%
same,Content of crystalline form A (%),[3]; 25° C.-60% RH-9 months,98.2%
same,Impurity content (%),[3]; 25° C.-60% RH-9 months,1.22%
same,Content of crystalline form A (%),[3]; 25° C.-60% RH-12 months,100.2%
same,Impurity content (%),[3]; 25° C.-60% RH-12 months,1.09%
same,Content of crystalline form A (%),[3]; 40° C.-75% RH-1 month,99.3%
same,Impurity content (%),[3]; 40° C.-75% RH-1 month,1.2%
same,Content of crystalline form A (%),[3]; 40° C.-75% RH-2 months,98.1%
same,Impurity content (%),[3]; 40° C.-75% RH-2 months,1.19%
same,Content of crystalline form A (%),[3]; 40° C.-75% RH-3 months,97.8%
same,Impurity content (%),[3]; 40° C.-75% RH-3 months,1.13%
same,Content of crystalline form A (%),[3]; 40° C.-75% RH-6 months,98.5%
same,Impurity content (%),[3]; 40° C.-75% RH-6 months,1.12%
same,Content of crystalline form A (%),[3]; Day 0,98.2%
same,Impurity content (%),[3]; Day 0,1.19%
CN[C@@H](C)C(=O)N[C@H](C(=O)N1CCC[C@H]1Cn1cc(C(C)=O)c2cc(Cl)ccc21)C1CCCCC1 [Compound of formula (I)],IC50,[4],5 nM
same,IC50,[5],29.9 nM
same,Tumor volume (mm^3),"[6]; 6 days, 30 mg/kg oral daily",214 mm^3
same,Tumor volume (mm^3),"[6]; 13 days, 30 mg/kg oral daily",282 mm^3
same,Tumor volume (mm^3),"[6]; 20 days, 30 mg/kg oral daily",810 mm^3
same,Tumor volume (mm^3),"[6]; Day 0, 30 mg/kg oral daily",147 mm^3
same,Tumor volume (mm^3),"[7]; 5 days, 30 mg/kg oral daily",111 mm^3
same,Tumor volume (mm^3),"[7]; 12 days, 30 mg/kg oral daily",86 mm^3
same,Tumor volume (mm^3),"[7]; 20 days, 30 mg/kg oral daily",177 mm^3
same,Tumor volume (mm^3),"[7]; Day 0, 30 mg/kg oral daily",110 mm^3
